Read-outs that look alike come from different tables or passages of the source.
Test system: Angiotensin II (AII) vasopressor response
Test: AII Challenge: antagonism of angiotensin II vasopressor response in conscious spontaneously hypertensive rats
Format: in vivo, rat (male okamoto-Aoki SHR)
Conditions: for inhibition in vivo at 3 mg/kg: Rattus norvegicus, iv, read-out: Inhibition
Method in brief: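 Read-out is the systolic pressure increase (mmHg) to i.v. angiotensin II, 0.05 and 0.1 ug/kg, compared pre- and post-dose in restrained, conscious spontaneously hypertensive male rats. Compounds administered orally, i.p. or i.v.; arterial cannula inserted under local anaesthesia.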

## CCCCc1nc2ccc([C@H]3[C@@H]4C5CCC(C5)[C@@H]4ON3C)cc2c(=O)n1Cc1ccc(-c2ccccc2-c2nnn[nH]2)cc1 (stereo partly drawn) [Example 51]
0.5 h, SHR n=2, 3 mg/kg I.V., AII 0.05 mcg/kg IV, 30 min post dose
  inhibition in vivo at 3 mg/kg: 89%
0.5 h, SHR n=2, 3 mg/kg I.V., AII 0.1 mcg/kg IV, 30 min post dose
  inhibition in vivo at 3 mg/kg: 87%
1 h, SHR n=2, 3 mg/kg I.V., AII 0.05 mcg/kg IV, 60 min post dose
  inhibition in vivo at 3 mg/kg: 63%
1 h
  inhibition in vivo at 3 mg/kg: 82%
2 h, SHR n=2, 3 mg/kg I.V., AII 0.05 mcg/kg IV, 120 min post dose
  inhibition in vivo at 3 mg/kg: 83%
2 h, SHR n=2, 3 mg/kg I.V., AII 0.1 mcg/kg IV, 120 min post dose
  inhibition in vivo at 3 mg/kg: 75%
3 h, SHR n=2, 3 mg/kg I.V., AII 0.05 mcg/kg IV, 180 min post dose
  inhibition in vivo at 3 mg/kg: 67%
3 h, SHR n=2, 3 mg/kg I.V., AII 0.1 mcg/kg IV, 180 min post dose
  inhibition in vivo at 3 mg/kg: 63%
[…], SHR n=2, 3 mg/kg I.V., AII 0.05 mcg/kg IV, 90 min post dose
  inhibition in vivo at 3 mg/kg: 78%
[…], SHR n=2, 3 mg/kg I.V., AII 0.1 mcg/kg IV, 90 min post dose
  inhibition in vivo at 3 mg/kg: 80%
SHR n=2, 3 mg/kg I.V., AII 0.05 mcg/kg IV, 30 min post dose
  Average Change: 5 mmHg
SHR n=2, 3 mg/kg I.V., AII 0.05 mcg/kg IV, 60 min post dose
  Average Change: 16.5 mmHg
SHR n=2, 3 mg/kg I.V., AII 0.05 mcg/kg IV, 90 min post dose
  Average Change: 10 mmHg
SHR n=2, 3 mg/kg I.V., AII 0.05 mcg/kg IV, 120 min post dose
  Average Change: 7.5 mmHg
SHR n=2, 3 mg/kg I.V., AII 0.05 mcg/kg IV, 180 min post dose
  Average Change: 15 mmHg
SHR n=2, 3 mg/kg I.V., AII 0.1 mcg/kg IV, 30 min post dose
  Average Change: 8 mmHg
SHR n=2, 3 mg/kg I.V., AII 0.1 mcg/kg IV, 60 min post dose
  Average Change: 11 mmHg
SHR n=2, 3 mg/kg I.V., AII 0.1 mcg/kg IV, 90 min post dose
  Average Change: 12.5 mmHg
SHR n=2, 3 mg/kg I.V., AII 0.1 mcg/kg IV, 120 min post dose
  Average Change: 15.5 mmHg
SHR n=2, 3 mg/kg I.V., AII 0.1 mcg/kg IV, 180 min post dose
  Average Change: 22.5 mmHg
Single SHR, 3 mg/kg I.V., AII 0.05 mcg/kg IV, 180 min post dose
  Change: 15 mmHg

— patent publication US5294611A, “Angiotensin II receptor blocking 2,3,6 substituted quinazolinones” (American Cyanamid Company, priority 1993, dated 1994)
